The record followed here is patent publication US11845730B2, “1,3-substituted cyclobutyl derivatives and uses thereof” (Novartis AG, priority 2021, dated 2023).

Structures are written as SMILES. Structures can show the parent of a compound that is named as a salt.

human TRPV1, sequence (Q8NER1 whole entry): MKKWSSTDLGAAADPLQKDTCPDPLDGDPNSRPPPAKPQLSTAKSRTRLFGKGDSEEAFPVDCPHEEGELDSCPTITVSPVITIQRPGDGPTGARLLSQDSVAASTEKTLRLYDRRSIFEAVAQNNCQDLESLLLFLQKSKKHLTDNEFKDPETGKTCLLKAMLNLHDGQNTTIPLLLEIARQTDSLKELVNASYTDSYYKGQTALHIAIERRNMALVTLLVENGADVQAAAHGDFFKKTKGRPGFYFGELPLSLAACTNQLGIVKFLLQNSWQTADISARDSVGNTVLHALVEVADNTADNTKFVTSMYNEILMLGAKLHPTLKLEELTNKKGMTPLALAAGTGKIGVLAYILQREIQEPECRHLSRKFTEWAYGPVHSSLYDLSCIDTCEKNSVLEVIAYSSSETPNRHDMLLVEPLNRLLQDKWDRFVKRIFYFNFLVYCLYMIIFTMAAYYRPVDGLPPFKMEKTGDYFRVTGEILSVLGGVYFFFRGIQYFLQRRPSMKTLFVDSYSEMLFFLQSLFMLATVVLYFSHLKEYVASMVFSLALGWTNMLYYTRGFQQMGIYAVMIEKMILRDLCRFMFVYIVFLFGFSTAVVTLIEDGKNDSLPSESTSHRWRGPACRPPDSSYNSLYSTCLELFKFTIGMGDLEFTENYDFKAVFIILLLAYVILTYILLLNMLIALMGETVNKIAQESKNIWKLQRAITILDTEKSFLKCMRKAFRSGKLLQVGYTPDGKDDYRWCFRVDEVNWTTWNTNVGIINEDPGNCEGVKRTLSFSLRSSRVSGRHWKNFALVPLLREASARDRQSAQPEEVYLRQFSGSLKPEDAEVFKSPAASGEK

The assay has as its target human TRPV1 (Homo sapiens (Human), UniProt Q8NER1). Conditions: read-out: IC50 (μM), antagonist effect against human TRPV1; CHO cells expressing human TrpV1; stimulated with 2.5 μM NADA (EC80); mean of at least three independent experiments.
Description: Chinese Hamster Ovary (CHO) cells transfected to express human TrpV1 receptor (which are herein referred to as CHO-huTrpV1 cells), were grown in F-12 Ham's Nutrient Mixture media (HyClone SH30026.01) supplemented with 10% Fetal Bovine Serum (Invitrogen #26140-079), 1% Antibiotic/antimycotic (Invitrogen #15240-062) and 500 ug/mL geneticin (ThermoFisher scientific #1031035). Cells were grown in T-75 flasks at 37° C. incubator with 5% CO2. The cells were passaged twice a week at a ratio of 1:10 to 1:20 to maintain steady growth. For experimentation, cells were harvested at approximately 80% confluency and plated onto 384 well black cell culture plates (cat #781091, Greinier Bio-One Inc.) at 15,000 cells per well in 20 μl media and grown overnight.
The loading dye was prepared following instruction of Calcium 6 assay kit (Molecular Probes, #R8190): 10 ml buffer from bottle B was added to 1 vial of bottle A (adapted to room temperature from −20° C.) and mixed well, then 2.5 mM of fresh prepared probenecid, was added and mixed well. 20 μl/well of loading dye was added on top of the cells, and incubated at 37° C. for 1 hour 30 min.
Assay buffer preparation: 1×HBSS, 2 mM HEPES, 0.1% BSA plus 2.5 mM freshly prepared probenecid (Invitrogen, #P36400). 25 μl/well assay buffer in 384 well clear plate (cat #782281, Greiner Bio-one) was dispensed with buffer distributor (Multidrop ComB1 from Thermo Scientific). The compounds were in 384 Echo plate (cat #LPL0200, Labcyte) and the starting concentration of compound was 10 mM, then 1 to 3 serial dilution in 100% DMSO, 8 ul/well). 125 nl compounds was transferred to the 384 well plate containing 25 μl/well buffer with Echo® 555 Liquid Handler (Labcyte), such that the compound concentration was 5 fold of final concentration. The plate was shook slowly at 40 rpm/min for 10 min to mix. 10 μl of 5 fold compound in the buffer was transferred to the cell plate (containing 20 μl cells and 20 μl dye) using Vertical Pipetting Station 384ST (Agilent Technologies). Six fold of final concentration of NADA (N-arachidonyl dopamine, cat #A8848, Sigma) in the assay buffer was prepared and 30 μl/well was distributed in 384 well clear plate.
After compounds were added to the cell plate with loading dye, within 10-15 minutes, cell plate and plate containing NADA was placed into the FLIPR (Fluorescent Imaging Plate Reader) instrument (Tetra System, Molecular device). The TRPV1 receptor was stimulated by application of 10 μl per well of NADA. For testing the effect of compounds for possible antagonism, 2.5 μM NADA was used at the EC80 concentration.
For determination of antagonist IC50 values (concentration of antagonist that inhibits response to NADA by 50%), at least 10 antagonist concentration were measured in triplicate. The response in the presence of the antagonist was calculated as a percentage of the control response to NADA and was plotted against the concentration of the antagonist. The IC50 was estimated by non-linear regression analysis to sigmoidal-logistic curves by HELIOS (PROD 2) system. These values were averaged (means and standard error of the mean) for at least three independent experiments.
The term IC50 denotes the concentration needed to halve the response being measured. Consider `OCCC(CO)c1cc(F)c(CN[C@H]2C[C@H](Oc3ccc(F)c(C(F)(F)F)c3)C2)c2ccncc12` (stereo partly shown) [Example 77, 2-(6-fluoro-5-((((1r,3r)-3-(4-fluoro-3-(trifluoromethyl)phenoxy)cyclobutyl)amino)methyl)isoquinolin-8-yl)butane-1,4-diol], for which the IC50 stood at 0.691 µM. Under `Fc1ccc(CO[C@H]2C[C@H](NCc3c(F)ccc4cnccc34)C2)cc1F` [Example 78, (1r,3r)-3-((3,4-difluorobenzyl)oxy)-N-((6-fluoroisoquinolin-5-yl)methyl)cyclobutan-1-amine] stands 0.77 µM. The figure for `Cc1ccc(O[C@H]2C[C@H](NCc3c(F)ccc4cnccc34)C2)cc1C` [Example 79, (1r,3r)-3-(3,4-dimethylphenoxy)-N-((6-fluoroisoquinolin-5-yl)methyl)cyclobutan-1-amine, HCl] is 0.147 µM. Under `CCOC(=O)c1ccc(O[C@H]2C[C@H](NCc3c(F)ccc4cnccc34)C2)cc1` [Example 80, ethyl 4-((1r,3r)-3-(((6-fluoroisoquinolin-5-yl)methyl)amino)cyclobutoxy)benzoate] stands 0.98 µM; under `CN(C)c1ccc2cnccc2c1CN[C@H]1C[C@H](Oc2ccc(F)c(C(F)(F)F)c2)C1` [Example 81, 5-((((1r,3r)-3-(4-fluoro-3-(trifluoromethyl)phenoxy)cyclobutyl)amino)methyl)-N,N-dimethylisoquinolin-6-amine, HCl], 0.255 µM. As to `Fc1cc(F)cc(O[C@H]2C[C@H](NCc3c(F)ccc4cnccc34)C2)c1` [Example 82, (1r,3r)-3-(3,5-difluorophenoxy)-N-((6-fluoroisoquinolin-5-yl)methyl)cyclobutan-1-amine, HCl], the IC50 turned out to be 0.169 µM.

`Fc1ccc2cnccc2c1CN[C@H]1C[C@H](Oc2ccc(S(F)(F)(F)(F)F)cc2)C1` [Example 83, (1r,3r)-N-((6-fluoroisoquinolin-5-yl)methyl)-3-(4-(pentafluoro-λ^6-sulfaneyl)phenoxy)cyclobutan-1-amine, HCl]: the IC50 was found to be 0.207 µM. The figure for `Cc1cc(C)cc(O[C@H]2C[C@H](NCc3c(F)ccc4cnccc34)C2)c1` [Example 84, (1r,3r)-3-(3,5-dimethylphenoxy)-N-((6-fluoroisoquinolin-5-yl)methyl)cyclobutan-1-amine, HCl] is 0.722 µM.

Turning to `Fc1ccc2cnccc2c1CN[C@H]1C[C@H](Oc2ccc(C3CC3)cc2)C1` [Example 85, (1r,3r)-3-(4-cyclopropylphenoxy)-N-((6-fluoroisoquinolin-5-yl)methyl)cyclobutan-1-amine, HCl], the IC50 came to 0.155 µM.

As to `N#Cc1ccc(O[C@H]2C[C@H](NCc3c(F)ccc4cnccc34)C2)cc1C(F)(F)F` [Example 86, 4-((1r,3r)-3-(((6-fluoroisoquinolin-5-yl)methyl)amino)cyclobutoxy)-2-(trifluoromethyl)benzonitrile, HCl], the IC50 came to 0.0693 µM. In the case of `Fc1ccc(O[C@H]2C[C@H](NCc3cccc4cncnc34)C2)cc1C(F)(F)F` [Example 87, (1r,3r)-3-(4-fluoro-3-(trifluoromethyl)phenoxy)-N-(quinazolin-8-ylmethyl)cyclobutan-1-amine, HCl], the IC50 was 0.321 µM. Under `Fc1ccc2cnccc2c1CN[C@H]1C[C@H](Oc2cccc(C3CC3)c2)C1` [Example 88, (1r,3r)-3-(3-cyclopropylphenoxy)-N-((6-fluoroisoquinolin-5-yl)methyl)cyclobutan-1-amine, HCl] stands 0.0952 µM; under `OCc1cc(F)c(CN[C@H]2C[C@@H](Oc3ccc(F)c(C(F)(F)F)c3)C2)c2ccncc12` [Example 89, (6-fluoro-5-((((1s,3s)-3-(4-fluoro-3-(trifluoromethyl)phenoxy)cyclobutyl)amino)methyl)isoquinolin-8-yl)methanol, HCl], 0.44 µM.

On to `OCc1cc(F)c(CN[C@H]2C[C@H](Oc3ccnc(C(F)(F)F)c3)C2)c2ccncc12` [Example 90, (6-fluoro-5-((((1r,3r)-3-((2-(trifluoromethyl)pyridin-4-yl)oxy)cyclobutyl)amino)methyl)isoquinolin-8-yl)methanol], for which the IC50 came to 0.874 µM. The figure for `Fc1ccc(O[C@H]2C[C@H](NCc3c(F)ccc4cnccc34)C2)cc1C(F)F` [Example 91, (1r,3r)-3-(3-(difluoromethyl)-4-fluorophenoxy)-N-((6-fluoroisoquinolin-5-yl)methyl)cyclobutan-1-amine, HCl] is 0.0399 µM; for `COc1ncc(O[C@H]2C[C@H](NCc3c(F)ccc4cnccc34)C2)cc1C(F)(F)F` [Example 92, (1r,3r)-N-((6-fluoroisoquinolin-5-yl)methyl)-3-((6-methoxy-5-(trifluoromethyl)pyridin-3-yl)oxy)cyclobutan-1-amine, HCl] it is 0.58 µM; for `Fc1cc(O[C@H]2C[C@H](NCc3c(F)ccc4cnccc34)C2)ccc1OC(F)(F)F` [Example 93, (1r,3r)-3-(3-fluoro-4-(trifluoromethoxy)phenoxy)-N-((6-fluoroisoquinolin-5-yl)methyl)cyclobutan-1-amine, HCl] it is 0.0826 µM. The figure for `Fc1ccc2cnccc2c1CN[C@H]1C[C@H](Oc2ccc(C(F)(F)F)nc2)C1` [Example 94, (1r,3r)-N-((6-fluoroisoquinolin-5-yl)methyl)-3-((6-(trifluoromethyl)pyridin-3-yl)oxy)cyclobutan-1-amine, HCl] is 0.193 µM; for `Fc1ccc2cnccc2c1CN[C@H]1C[C@H](Oc2cncc(C(F)(F)F)c2)C1` [Example 95, (1r,3r)-N-((6-fluoroisoquinolin-5-yl)methyl)-3-((5-(trifluoromethyl)pyridin-3-yl)oxy)cyclobutan-1-amine, HCl] it is 0.323 µM; for `Fc1ccc2cnccc2c1CN[C@H]1C[C@H](Oc2nc3ccccc3s2)C1` [Example 96, (1r,3r)-3-(benzo[d]thiazol-2-yloxy)-N-((6-fluoroisoquinolin-5-yl)methyl)cyclobutan-1-amine, HCl] it is 0.747 µM. The figure for `CCc1ccc2cnccc2c1CN[C@H]1C[C@H](Oc2ccc(F)c(C(F)(F)F)c2)C1` [Example 97, (1r,3r)-N-((6-ethylisoquinolin-5-yl)methyl)-3-(4-fluoro-3-(trifluoromethyl)phenoxy)cyclobutan-1-amine, HCl] is 0.28 µM. Regarding `Fc1ccc(O[C@H]2C[C@H](NCc3cccc4cnc(Cl)cc34)C2)cc1C(F)(F)F` [Example 98, (1r,3r)-N-((3-chloroisoquinolin-5-yl)methyl)-3-(4-fluoro-3-(trifluoromethyl)phenoxy)cyclobutan-1-amine, HCl], the IC50 is 0.418 µM. The figure for `Fc1ccc(S[C@H]2C[C@H](NCc3cccc4cnccc34)C2)cc1C(F)(F)F` [Example 99, (1r,3r)-3-((4-fluoro-3-(trifluoromethyl)phenyl)thio)-N-(isoquinolin-5-ylmethyl)cyclobutan-1-amine, HCl] is 0.362 µM; for `Fc1ccc(S[C@H]2C[C@H](NCc3c(F)ccc4cnccc34)C2)cc1C(F)(F)F` [Example 100, (1r,3r)-3-((4-fluoro-3-(trifluoromethyl)phenyl)thio)-N-((6-fluoroisoquinolin-5-yl)methyl)cyclobutan-1-amine, HCl] it is 0.074 µM; for `Fc1cc(O[C@H]2C[C@H](NCc3c(F)ccc4cnccc34)C2)ccc1C(F)F` [Example 101, (1r,3r)-3-(4-(difluoromethyl)-3-fluorophenoxy)-N-((6-fluoroisoquinolin-5-yl)methyl)cyclobutan-1-amine] it is 0.0147 µM.

`Fc1ccc(O[C@H]2C[C@H](NCc3c(F)ccc4cncnc34)C2)cc1C(F)(F)F` [Example 102, (1r,3r)-3-(4-fluoro-3-(trifluoromethyl)phenoxy)-N-((7-fluoroquinazolin-8-yl)methyl)cyclobutan-1-amine]: the IC50 amounted to 0.0603 µM.

On to `O=C(Cc1c(F)cc(CO)c2cnccc12)N[C@H]1C[C@H](Oc2ccc(F)c(C(F)(F)F)c2)C1` [Example 103, N-((1r,3r)-3-(4-fluoro-3-(trifluoromethyl)phenoxy)cyclobutyl)-2-(6-fluoro-8-(hydroxymethyl)isoquinolin-5-yl)acetamide], for which the IC50 came out at 0.00044 µM. Under `NCC(O)c1cc(F)c(CN[C@H]2C[C@H](Oc3ccc(F)c(C(F)(F)F)c3)C2)c2ccncc12` (stereo partly shown) [Example 104, 2-amino-1-(6-fluoro-5-((((1r,3r)-3-(4-fluoro-3-(trifluoromethyl)phenoxy)cyclobutyl)amino)methyl)isoquinolin-8-yl)ethan-1-ol] stands 2.15 µM. The figure for `Fc1ccc(CO[C@H]2C[C@H](NCc3c(F)ccc4cnccc34)C2)c(F)c1` [Example 105, (1r,3r)-3-((2,4-difluorobenzyl)oxy)-N-((6-fluoroisoquinolin-5-yl)methyl)cyclobutan-1-amine] is 1.28 µM.

Regarding `Cc1cc(O[C@H]2C[C@H](NCc3c(F)ccc4cnccc34)C2)cc(C(F)(F)F)n1` [Example 106, (1r,3r)-N-((6-fluoroisoquinolin-5-yl)methyl)-3-((2-methyl-6-(trifluoromethyl)pyridin-4-yl)oxy)cyclobutan-1-amine], the IC50 amounted to 1.65 µM. The figure for `Fc1ccc2cnccc2c1CN[C@H]1C[C@H](Oc2nc(C(F)(F)F)cs2)C1` [Example 107, (1r,3r)-N-((6-fluoroisoquinolin-5-yl)methyl)-3-((4-(trifluoromethyl)thiazol-2-yl)oxy)cyclobutan-1-amine] is 1.91 µM; for `N#Cc1ncc(O[C@H]2C[C@H](NCc3c(F)ccc4cnccc34)C2)cn1` [Example 108, 5-((1r,3r)-3-(((6-fluoroisoquinolin-5-yl)methyl)amino)cyclobutoxy)pyrimidine-2-carbonitrile] it is 2.51 µM.

Take `Nc1nccc2c(CN[C@H]3C[C@H](Oc4ccc(F)c(C(F)(F)F)c4)C3)cccc12` [Example 109, 5-((((1r,3r)-3-(4-fluoro-3-(trifluoromethyl)phenoxy)cyclobutyl)amino)methyl)isoquinolin-1-amine]: the IC50 is 1.46 µM. `Fc1ccc2cnccc2c1CN[C@H]1C[C@H](Oc2ccc(C(F)F)nc2)C1` [Example 110, (1r,3r)-3-((6-(difluoromethyl)pyridin-3-yl)oxy)-N-((6-fluoroisoquinolin-5-yl)methyl)cyclobutan-1-amine]: the IC50 was determined as 1.38 µM.
